The results in this text go back to PMC5114558, “Reader domain specificity and lysine demethylase-4 family function” (Nature Communications, 2016).

The target of experiment [1] is T1, KDM4A DTD (human KDM4A double tudor domain, 895–1011aa) (Homo sapiens, UniProt O75164).
T1 construct: DNA encoding DTDs (KDM4A 895–1011aa, KDM4B 917–1031aa and KDM4C 877–991aa); (His)6-HaloTag (pFN29) or (His)6 (pET28b); made in house; host or cells: Escherichia coli BL21 (DE3)
T1 sequence (O75164 895-1011): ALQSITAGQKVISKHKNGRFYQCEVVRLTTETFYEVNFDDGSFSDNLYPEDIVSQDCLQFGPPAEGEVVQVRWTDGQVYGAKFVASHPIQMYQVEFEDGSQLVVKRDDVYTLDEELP
As to the kind of experiment: fluorescence polarization (FP) binding, KDM4A-DTD wild-type. To be noted: pH 7.4, read-out: Kd, KDM4A-DTD wild-type. The source says:
(§1) KDM4 protein sequences used in this study correspond to Uniprot ID: O75164 (human KDM4A, isoform 1), O94953 (human KDM4B, isoform1) and Q9H3R0 (human KDM4C, isoform1). Plasmid encoding KDM4A DTD was kindly provided by R-M Xu (Chinese Academy of Sciences). Complementary DNA encoding human KDM4B-DTD was synthesized (Integrated DNA Technologies). Plasmid containing cDNA of full-length KDM4C (clone ID: HsCD00341594) was obtained from Harvard Plasmid Repository. DNA encoding DTDs (KDM4A 895–1011aa, KDM4B 917–1031aa and KDM4C 877–991aa) were cloned into pFN29 (Promega) with N-terminal (His)6-HaloTag or pET28b with N-terminal (His)6 Tag using In-Fusion HD cloning kit (Clontech). Plasmids encoding Xenopus laevis core histones were a generous gift of K. Luger (University of Colorado-Boulder). Site-directed mutagenesis was performed with Q5 Site-Directed Mutagenesis Kit (New England Biolabs).
(§2) Peptide sequences are given in Supplementary Table 1. […] A no-protein control with only peptide probe was included. Polarization at each concentration was measured as triplicates in 384-well polystyrene black microplates (Thermo Fisher Scientific 262260) by Biotek Synergy H4 multimode plate reader (light source: xenon flash, offset from top: 7 mm, sensitivity: 60%, excitation: 485/20 nm, emission: 528/20 nm, both parallel and perpendicular, normal read speed). Fraction bound (Fb) at each concentration was calculated based on the corresponding polarization values (P): Fbc=(Pc−Pmin)/(Pmax−Pmin), where Pmin is the polarization value of no-protein control and Pmax is the polarization value of the saturation value for that peptide. Dissociation constants (Kd) were derived by KaleidaGraph, Synergy Software (version 4.1.3) using the following equation: Fb=[protein]/([protein]+Kd).
(In fluorescence polarisation assays a small probe gives low polarisation when free and higher when bound to something large.)

Experiment [2] addresses T2, KDM4B DTD (human KDM4B double tudor domain, 917–1031aa) (Homo sapiens, UniProt O94953).
T2 construct: DNA encoding DTDs (KDM4A 895–1011aa, KDM4B 917–1031aa and KDM4C 877–991aa); (His)6-HaloTag (pFN29) or (His)6 (pET28b); made in house; host or cells: Escherichia coli BL21 (DE3)
T2 sequence (O94953 917-1031): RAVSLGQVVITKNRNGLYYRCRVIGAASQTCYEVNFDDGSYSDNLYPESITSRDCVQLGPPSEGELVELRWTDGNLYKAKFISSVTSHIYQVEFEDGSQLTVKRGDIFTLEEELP
As to the kind of experiment: fluorescence polarization (FP) binding, KDM4B-DTD wild-type. Particulars: Fig. 1c, 3 nM fluorescein-labelled peptide, pH 7.4, ± s.d. from three experimental replicates, read-out: binding constant (FP), KDM4B-DTD.
Description: as §1, §2

For experiment [3], the target named is T3, KDM4C DTD (human KDM4C double tudor domain, 877–991aa) (Homo sapiens, UniProt Q9H3R0).
T3 construct: DNA encoding DTDs (KDM4A 895–1011aa, KDM4B 917–1031aa and KDM4C 877–991aa); (His)6-HaloTag (pFN29) or (His)6 (pET28b); made in house; host or cells: Escherichia coli BL21 (DE3)
T3 sequence (Q9H3R0 877-991): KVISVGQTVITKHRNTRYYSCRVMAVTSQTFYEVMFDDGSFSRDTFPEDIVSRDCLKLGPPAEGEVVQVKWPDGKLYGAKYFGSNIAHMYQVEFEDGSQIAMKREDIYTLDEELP
As to the kind of experiment: fluorescence polarization (FP) binding, KDM4C-DTD wild-type. To be noted: Fig. 1c, 3 nM fluorescein-labelled peptide, pH 7.4, ± s.d. from three experimental replicates, read-out: binding constant (FP), KDM4C-DTD.
Description: as §1, with “Plasmids encoding Xenopus laevis core histones were a generous gift of K. Luger (University of Colorado-Boulder). Site-directed mutagenesis was performed with Q5 Site-Directed Mutagenesis Kit (New England Biolabs).” left out
(§3) Peptide sequences are given in Supplementary Table 1. […] Polarization at each concentration was measured as triplicates in 384-well polystyrene black microplates (Thermo Fisher Scientific 262260) by Biotek Synergy H4 multimode plate reader (light source: xenon flash, offset from top: 7 mm, sensitivity: 60%, excitation: 485/20 nm, emission: 528/20 nm, both parallel and perpendicular, normal read speed). Fraction bound (Fb) at each concentration was calculated based on the corresponding polarization values (P): Fbc=(Pc−Pmin)/(Pmax−Pmin), where Pmin is the polarization value of no-protein control and Pmax is the polarization value of the saturation value for that peptide. […]

The target of another experiment is T4, KDM4A-DTD Y973A (Homo sapiens, UniProt O75164, Y973A).
T4 construct: DNA encoding DTDs (KDM4A 895–1011aa, KDM4B 917–1031aa and KDM4C 877–991aa); (His)6-HaloTag (pFN29) or (His)6 (pET28b); made in house; host or cells: Escherichia coli BL21 (DE3)
T4 sequence (O75164 895-1011 Y973A limits assumed): T1 sequence (O75164 895-1011) with Y79A
Briefly: FP binding, KDM4A-DTD Y973A. To be noted: pH 7.4, aromatic cage mutant, Fig. 2e (± s.d., three replicates) and text.
Description: as §1, with “Plasmids encoding Xenopus laevis core histones were a generous gift of K. Luger (University of Colorado-Boulder). Site-directed mutagenesis was performed with Q5 Site-Directed Mutagenesis Kit (New England Biolabs).” left out
as §3

A further experiment concerns the target T5, KDM4A-DTD N940A (Homo sapiens, UniProt O75164, N940A).
T5 construct: DNA encoding DTDs (KDM4A 895–1011aa, KDM4B 917–1031aa and KDM4C 877–991aa); (His)6-HaloTag (pFN29) or (His)6 (pET28b); made in house; host or cells: Escherichia coli BL21 (DE3)
T5 sequence (O75164 895-1011 N940A): T1 sequence (O75164 895-1011) with N46A
Briefly: FP binding, KDM4A-DTD N940A. To be noted: pH 7.4, Fig. 2g, 4g (± s.d., three replicates) and text.
Description: as §1, with “Plasmids encoding Xenopus laevis core histones were a generous gift of K. Luger (University of Colorado-Boulder). Site-directed mutagenesis was performed with Q5 Site-Directed Mutagenesis Kit (New England Biolabs).” left out
as §3

The target in a further experiment is T6, KDM4A-DTD N931R (Homo sapiens, UniProt O75164, N931R).
T6 construct: DNA encoding DTDs (KDM4A 895–1011aa, KDM4B 917–1031aa and KDM4C 877–991aa); (His)6-HaloTag (pFN29) or (His)6 (pET28b); made in house; host or cells: Escherichia coli BL21 (DE3)
T6 sequence (O75164 895-1011 N931R limits assumed): T1 sequence (O75164 895-1011) with N37R
As to the kind of experiment: FP binding, KDM4A-DTD N931R. To be noted: pH 7.4, Fig. 2j (± s.d., three replicates) and text, read-out: binding affinity, KDM4A-DTD N931R.
Description: as §1, with “Plasmids encoding Xenopus laevis core histones were a generous gift of K. Luger (University of Colorado-Boulder). Site-directed mutagenesis was performed with Q5 Site-Directed Mutagenesis Kit (New England Biolabs).” left out
as §3

Another experiment addresses T7, KDM4A-DTD N931D (Homo sapiens, UniProt O75164, N931D).
T7 construct: DNA encoding DTDs (KDM4A 895–1011aa, KDM4B 917–1031aa and KDM4C 877–991aa); (His)6-HaloTag (pFN29) or (His)6 (pET28b); made in house; host or cells: Escherichia coli BL21 (DE3)
T7 sequence (O75164 895-1011 N931D): T1 sequence (O75164 895-1011) with N37D
Briefly: FP binding, KDM4A-DTD N931D. To be noted: pH 7.4, Fig. 2j (± s.d., three replicates), Supplementary Fig. 2f and text.
Description: as §1, with “Plasmids encoding Xenopus laevis core histones were a generous gift of K. Luger (University of Colorado-Boulder). Site-directed mutagenesis was performed with Q5 Site-Directed Mutagenesis Kit (New England Biolabs).” left out
as §3

Experiment [4] has as its target T8, KDM4A-DTD triple mutant N931D/D939R/D945R (DRR) (Homo sapiens, UniProt O75164, D939R/D945R/N931D).
T8 construct: DNA encoding DTDs (KDM4A 895–1011aa, KDM4B 917–1031aa and KDM4C 877–991aa); (His)6-HaloTag (pFN29) or (His)6 (pET28b); made in house; host or cells: Escherichia coli BL21 (DE3)
T8 sequence (O75164 895-1011 N931D/D939R/D945R): T1 sequence (O75164 895-1011) with N37D, D45R, D51R
As to the kind of experiment: FP binding, KDM4A-DTD DRR mutant.
Description: as §1, with “Plasmids encoding Xenopus laevis core histones were a generous gift of K. Luger (University of Colorado-Boulder). Site-directed mutagenesis was performed with Q5 Site-Directed Mutagenesis Kit (New England Biolabs).” left out
as §3

In a further experiment the target is T9, KDM4B-DTD Y993A (Homo sapiens, UniProt O94953, Y993A).
T9 construct: DNA encoding DTDs (KDM4A 895–1011aa, KDM4B 917–1031aa and KDM4C 877–991aa); (His)6-HaloTag (pFN29) or (His)6 (pET28b); made in house; host or cells: Escherichia coli BL21 (DE3)
T9 sequence (O94953 917-1031 Y993A): T2 sequence (O94953 917-1031) with Y77A
Briefly: FP binding, KDM4B-DTD Y993A. To be noted: aromatic cage mutant, Supplementary Fig. 4d, value printed in peer review file.
Description: as §1, with “Plasmids encoding Xenopus laevis core histones were a generous gift of K. Luger (University of Colorado-Boulder). Site-directed mutagenesis was performed with Q5 Site-Directed Mutagenesis Kit (New England Biolabs).” left out
as §3

Each structure is given as a SMILES string. Substitutions are numbered along the chain they refer to.

For `CC(C)C[C@H](NC(=O)[C@H](CCC(N)=O)NC(=O)[C@H](CCCCN)NC(=O)[C@H](CCCNC(=N)N)NC(=O)c1ccc2c(c1)C(=O)OC21c2ccc(O)cc2Oc2cc(O)ccc21)C(=O)N[C@@H](C)C(=O)N[C@H](C(=O)N[C@@H](CCCC[N+](C)(C)C)C(=O)N[C@@H](C)C(=O)N[C@@H](C)C(=O)N[C@@H](CCCNC(=N)N)C(=O)N[C@@H](CCCCN)C(=O)N[C@@H](CO)C(=O)N[C@@H](C)C(=O)N1CCC[C@H]1C(=O)N[C@@H](C)C(=O)N[C@H](C(=O)O)[C@@H](C)O)[C@@H](C)O` [H3K23me3], the Kd turned out to be 2.2 µM in experiment [1]; 10.3 ± 1.2 µM in experiment [2]; 73.6 ± 3.9 µM in experiment [3]; 285 µM on KDM4A-DTD Y973A; 57.4 µM at KDM4A-DTD N940A; 73.9 µM at KDM4A-DTD N931R. Further, the values for the Kd at KDM4A-DTD N931D and on KDM4B-DTD Y993A were 0.85 µM and 327 µM, respectively. Besides, the “Kd of DRR mutant” value in [4] was “low micromolar Kd value”.
